# Source: US20030008024A1, “Therapeutic composition of herbal extracts and the uses thereof” (Advanced Herbal Therapeutics, Inc., priority 2001, published 2003)
# Key:
# T cells of AA mice = T cells of AA mice (esterase stain, flow cytometry); format: in vivo, NIH mice; settings: 0.012 g/kg
# Procedure: A total of 60 NIH mice weighing 20±2 g were randomly divided into 6 groups, among which four groups were injected intradermially with 0.05 ml FCA to induce AA model mice. The negative control group was injected intradermially with 0.05ml saline. The rats in AHT-323 test groups were administrated orally with AHT-323 once daily for consecutive five days. Five days later, peripheral blood was drawn from mice in all groups and stained with esterase. The percent of T cells (positive esterase stained cells) was calculated.
# The above mice were anesthetized and spleens were removed and made into splenocytes suspension. CD4^+ T cells and CD8^+ T cells were assayed with flow cytometry and CD4^+/CD8^+ was calculated.
# [1] = system: adjuvant arthritis (AA) rats; test: Therapeutic effect on adjuvant arthritis rats (swelling); format: in vivo, SD rats; settings: 0.01 g/kg
# Procedure: (§1) In the study, 60 male SD rats weighing 180-220 g were used and randomly divided into 5 groups, including three test groups, one negative and one positive control groups. The rats were given p.o. three different dosages of AHT-323, tragacanth, or prednisone, respectively, once daily for 4 consecutive weeks. 0.1 ml of Freund's Complete Adjuvant (FCA) was also injected intradermally into the plantar of left hind paw of rats […]. Each day, the maximal circumference of both left and right paw and ankle joint were measured, and the swelling degrees (mm) were calculated to determine the AHT-323 on both primary and secondary injury. The primary injury occurs at the homolateral joints of the adjuvant injection and is resulted from direct, non-specific inflammatory reaction of the body to adjuvant. Whereas the secondary injury occurs at the contralateral joints of the adjuvant injection in about two weeks after adjuvant injection and is related to auto-immune responses induced by adjuvant injection. The pathological changes of human rheumatoid arthritis is similar to that of the secondary injury in AA rats.
# Totals of 50 male SD rats were divided into 5 groups with the same treatment as experiments described in section 3.3.1 except that the AHT-323 was given p.o. from d13˜d28 once daily for 2 weeks, (from the thirteenth day after injection of Freund's Complete Adjuvant).
# [2] = system: adjuvant arthritis (AA) rats; test: Prophylactic effect on rat adjuvant arthritis (paw and ankle swelling); format: in vivo, SD rats; settings: 0.01 g/kg p.o.
# Procedure: The study was conducted in adjuvant arthritis (AA) rats, an experimental model for human rheumatoid arthritis.
# as §1
# [3] = system: paw swelling induced by carrageenin; test: Paw swelling induced by carrageenin in rat; format: in vivo, SD rats; settings: 0.25 g/kg p.o. 3 days
# Procedure: A total of 50 SD rats weighing 100-120g with equal sex distribution were randomly divided into 5 groups. The rats were treated p.o. with different doses of AHT-323, tragacanth, or aspirin once daily for 3 days. One hour later, rats were given subcutaneously injections with 0.05 ml of carrageenin (1%) in the right paw of each rat. The degree of paw swelling was measured using the drainage method before and 1, 3, 4, 5, and 6 h after injection of the carrageenin.
# WBC of pleura = test: Migration of inflammatory cells of pleura (Fucus siliquosus glue); format: in vivo, NIH mice; settings: 0.05 g/kg
# Procedure: A total of 50 NIH mice were randomly divided into five groups. 0.5% Evans blue saline was injected into caudal vein at 0.1 ml/10 g body weight. Then mice were lightly anesthetized with ether and injected with 0.03 ml of Fucus siliquosus glue into right thoracic cavity to induce inflammation. 4 h and 32 h after inflammation induction, the mice were sacrificed and 2 ml of thoracic cavity wash liquid was collected and used to count the WBC and measure the optical density (OD) at 600 nm. […] The regression equation on 4 h was y=44.13-2.01x, r=0.9625.
# peritoneal macrophage = test: CRBC phagocytosis of peritoneal macrophage of mice; format: in vivo; settings: 0.005 g/kg p.o. once daily 7 days
# Procedure: Totals of 50 NIH mice weighing 18-22 g with equal sex distribution were randomly divided into 5 groups. The mice were treated p.o. with different doses of AHT-323 or other positive control drug once daily for 7 days. 1 h after the last dose, mice were injected i.p. with 0.2 ml […] of chick (10%). 4 h later, mice were sacrificed and the peritoneal fluid was obtained. Under microscope, the amount of macrophage that phagocytosed CRBC and the amount of CRBC phagocytosed by each macrophage were counted.
# [4] = system: ear swelling induced by croton oil; test: Ear swelling induced by croton oil; format: in vivo, NIH mice; settings: 0.003 g/kg p.o. once daily 3 days
# Procedure: A total of 60 NIH mice weighing 18-22 g with equal sex distribution were randomly divided into 6 groups. The mice were treated p.o. with different doses of AHT-323, tragacanth, or DXM once daily for 3 days. One hour after the last administration, 0.02 ml croton oil (2%) was pasted around the left auricle. Four hours later, mice were sacrificed by dislocating cervical vertebrae. The right and left ears were cut off and weighed to get the differences in the degree of ear swelling.
# cotton granuloma = test: Cotton granuloma and organ weights; format: in vivo, SD rats; settings: 0.05 g/kg p.o. once daily 7 days
# Procedure: 150 SD rats weighing 150-180 g with equal sex distribution were randomly divided into 15 groups. After light anesthesia with ether, an aseptic cotton ball (10 mg) was implanted into each armpit. On that day, rats were administered p.o. with different doses of AHT-323 or DXM once daily for 7 days. Twenty four hours after the last drug administration, the rats were sacrificed and the cotton balled granuloma were removed. The wet and dry weight of the granuloma, and other organs were obtained.
compound,measurement,setting,value
CC(=O)OC[C@]12[C@H](OC(C)=O)[C@H](OC(C)=O)[C@@H]3[C@@H](OC(C)=O)[C@@]14O[C@@]3(C)COC(=O)c1cccnc1CCC(C)(O)C(=O)O[C@@H]([C@H](OC(=O)c1ccccc1)[C@@H]2OC(C)=O)[C@]4(C)O (stereo partly shown) [Wilfordine],CD4^+/CD8^+,T cells of AA mice,1.70 ± 0.03
same,ANAE^+ (%),T cells of AA mice; peripheral blood,48.88 ± 2.89%
same,CD4^+ (%),T cells of AA mice; splenocytes,27.88 ± 1.99 %
same,CD8^+ (%),T cells of AA mice; splenocytes,16.33 ± 1.31 %
"C[C@]12C=CC(=O)C=C1CC[C@@H]1[C@@H]2C(=O)C[C@@]2(C)[C@H]1CC[C@]2(O)C(=O)CO [Prednisone, prednisone]",Swelling degree,"[1]; primary injury, therapeutic (p.o. d13˜d28), D1",1.78 ± 0.51 cm
same,Swelling degree,"[1]; primary injury, therapeutic (p.o. d13˜d28), d2",1.70 ± 0.51 cm
same,Swelling degree,"[1]; primary injury, therapeutic (p.o. d13˜d28), d4",1.63 ± 0.50 cm
same,Swelling degree,"[1]; primary injury, therapeutic (p.o. d13˜d28), d6",1.58 ± 0.50 cm
same,Swelling degree,"[1]; primary injury, therapeutic, 2nd block col 1 (day not given)",1.27 ± 0.46 cm
same,Swelling degree,"[1]; primary injury, therapeutic, 2nd block col 2 (day not given)",1.09 ± 0.54 cm
same,Swelling degree,"[1]; primary injury, therapeutic, 2nd block col 3 (day not given)",0.94 ± 0.50 cm
same,Swelling degree,"[1]; primary injury, therapeutic, 2nd block col 4 (day not given)",0.94 ± 0.42 cm
same,Swelling degree,"[1]; secondary injury, therapeutic (p.o. d13˜d28), D1",1.08 ± 00.41 cm
same,Swelling degree,"[1]; secondary injury, therapeutic (p.o. d13˜d28), d2",1.18 ± 00.44 cm
same,Swelling degree,"[1]; secondary injury, therapeutic (p.o. d13˜d28), d4",1.23 ± 00.42 cm
same,Swelling degree,"[1]; secondary injury, therapeutic (p.o. d13˜d28), d6",1.19 ± 00.38 cm
same,Swelling degree,"[1]; secondary injury, therapeutic, 2nd block col 1 (day not given)",0.88 ± 00.47 cm
same,Swelling degree,"[1]; secondary injury, therapeutic, 2nd block col 2 (day not given)",0.95 ± 00.43 cm
same,Swelling degree,"[1]; secondary injury, therapeutic, 2nd block col 3 (day not given)",0.82 ± 00.48 cm
same,Swelling degree,"[1]; secondary injury, therapeutic, 2nd block col 4 (day not given)",0.75 ± 00.37 cm
same,Swelling degree,"[2]; primary injury, 2nd block col 1 (day not given)",1.18 ± 0.76 cm
same,Swelling degree,"[2]; primary injury, 2nd block col 2 (day not given)",1.03 ± 0.67 cm
same,Swelling degree,"[2]; primary injury, 2nd block col 3 (day not given)",1.05 ± 0.69 cm
same,Swelling degree,"[2]; primary injury, 2nd block col 4 (day not given)",0.90 ± 0.64 cm
same,Swelling degree,"[2]; primary injury, 2nd block col 5 (day not given)",0.86 ± 0.65 cm
same,Swelling degree,"[2]; primary injury, 2nd block col 6 (day not given)",0.85 ± 0.59 cm
same,Swelling degree,"[2]; primary injury, d1",0.64 ± 0.14 cm
same,Swelling degree,"[2]; primary injury, d2",0.64 ± 0.16 cm
same,Swelling degree,"[2]; primary injury, d3",0.50 ± 0.26 cm
same,Swelling degree,"[2]; primary injury, d9",0.46 ± 0.25 cm
same,Swelling degree,"[2]; primary injury, d12",0.72 ± 0.46 cm
same,Swelling degree,"[2]; primary injury, d14",0.87 ± 0.46 cm
same,Swelling degree,"[2]; primary injury, d16",1.28 ± 0.69 cm
same,Swelling degree,"[2]; secondary injury, 2nd block col 1 (day not given)",0.78 ± 0.70 cm
same,Swelling degree,"[2]; secondary injury, 2nd block col 2 (day not given)",0.72 ± 0.71 cm
same,Swelling degree,"[2]; secondary injury, 2nd block col 3 (day not given)",0.67 ± 0.64 cm
same,Swelling degree,"[2]; secondary injury, 2nd block col 4 (day not given)",0.62 ± 0.61 cm
same,Swelling degree,"[2]; secondary injury, 2nd block col 5 (day not given)",0.65 ± 0.64 cm
same,Swelling degree,"[2]; secondary injury, D9",0.038 ± 0.048 cm
same,Swelling degree,"[2]; secondary injury, d2",0.016 ± 0.039 cm
same,Swelling degree,"[2]; secondary injury, d12",0.14 ± 0.14 cm
same,Swelling degree,"[2]; secondary injury, d14",0.38 ± 0.39 cm
same,Swelling degree,"[2]; secondary injury, d16",0.92 ± 0.62 cm
same,Swelling degree,"[2]; secondary injury, d18",0.78 ± 0.71 cm
"CC(=O)Oc1ccccc1C(=O)O [Aspirin, aspirin]",Paw swelling rate (%),[3]; 1 h,6.3 ± 4.1 %
same,Paw swelling rate (%),[3]; 3 h,11.1 ± 6.3 %
same,Paw swelling rate (%),[3]; 4 h,17.9 ± 7.6 %
same,Paw swelling rate (%),[3]; 5 h,18.1 ± 7.0 %
same,Paw swelling rate (%),[3]; 6 h,20.6 ± 6.0 %
"C[C@@H]1C[C@H]2[C@@H]3CCC4=CC(=O)C=C[C@]4(C)[C@@]3(F)[C@@H](O)C[C@]2(C)[C@@]1(O)C(=O)CO [DXM, dexamethasone]",WBC count,WBC of pleura; 4 h after inflammation induction,12.7 ± 10.2
same,WBC count,WBC of pleura; 32 h,4.4 ± 4.0
same,Phagocytic index,peritoneal macrophage,1.10 ± 0.18
same,Phagocytic percent (%),peritoneal macrophage,8.33 ± 10.13 %
same,Swelling degree,[4],14.13 ± 5.75 mg
same,inhibition at 3 mg/kg,"[4]; Mus musculus, po, 72 h, read-out: Inhibition rate",68.2%
same,Granuloma Wt. Dry Wt.,cotton granuloma,77 ± 17 mg/100 g
same,Granuloma Wt. Wet Wt.,cotton granuloma,346 ± 92 mg/100 g
same,Weight of organs: Adrenal,cotton granuloma,17 ± 5 mg/100 g
same,Weight of organs: Spleen,cotton granuloma,412 ± 173 mg/100 g
same,Weight of organs: Thymus,cotton granuloma,38 ± 13 mg/100 g
same,Weight of organs: uterus,cotton granuloma,126 ± 33 mg/100 g
